In US20100016357A1, “Use of Beta-Aminoalcohols for the Treatment of Inflammatory Disorders and Pain” (SOSEI R & D LTD., priority 2006, published 2010):

Legend:
[1] = tested on: LPS-induced TNFα and IL1β cytokine production; test: LPS Mouse Assay (serum cytokines by ELISA); assay type: in vivo, Balb C ByJ mice; conditions: mice, i.p. or oral, 30 minutes before 1 mg/kg LPS i.p.; serum 2 hours after LPS
Description: 7 week old Balb C ByJ mice (24-28 g) were administered, either by i.p. (5 ml/kg) or oral (10 ml/kg) administration, with vehicle or test article. 30 minutes later these animals were challenged with an intraperitoneal injection of 1 mg/kg LPS. 2 hours after LPS challenge blood samples were collected under light isoflurane anaesthesia into normal tubes by retro-orbital puncture. Samples were allowed to clot at room temperature and then spun at 6000 g for 3 min at 4° C. Serum was stored at −20° C. until use. Serum TNFα and IL-10 levels were analysed in duplicate by ELISA technique.

Beta2 = molecular target: T1, Beta2 (Cavia porcellus, UniProt Q8K4Z4); test: Beta2 Agonism Functional Assay (inhibition of carbachol-stimulated tracheal muscle twitch); assay type: cell-based; conditions: Guinea-pig trachea ring preparations contracted with carbachol
T1 construct: from tissue; host or cells: guinea-pig trachea rings
Description: Guinea-pig trachea ring preparations were suspended in Kreb's solution containing indomethacin. […] Beta2 agonism for each test compound was determined by its dose-dependant inhibition of carbachol-stimulated tracheal muscle twitch.

T1 sequence (Q8K4Z4 whole entry): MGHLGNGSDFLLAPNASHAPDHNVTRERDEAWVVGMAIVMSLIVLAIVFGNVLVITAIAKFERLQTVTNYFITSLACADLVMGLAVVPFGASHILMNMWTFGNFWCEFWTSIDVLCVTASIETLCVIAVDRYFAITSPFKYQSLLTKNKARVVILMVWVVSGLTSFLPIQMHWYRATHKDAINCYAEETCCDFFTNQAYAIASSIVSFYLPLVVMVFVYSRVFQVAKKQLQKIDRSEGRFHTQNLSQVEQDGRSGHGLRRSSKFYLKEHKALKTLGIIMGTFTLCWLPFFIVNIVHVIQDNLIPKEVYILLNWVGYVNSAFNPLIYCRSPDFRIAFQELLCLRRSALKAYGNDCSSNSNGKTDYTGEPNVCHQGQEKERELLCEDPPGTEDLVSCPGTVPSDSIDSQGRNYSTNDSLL

SMILES	effect on LPS-induced IL1β production [1]	effect on LPS-induced TNFα production [1]	beta2 agonism (in words) (Beta2)	IC50 (Beta2; inhibition of tracheal muscle twitch)
Nc1c(Cl)cc(C(O)C2CCCCN2)cc1Cl (single isomer, unassigned) [Compound 7, Erythro-(3,5-dichloro-4-amino-phenyl)-piperidin-2-yl-methanol]	had effects	had effects	poor, beta2 agonists	> 2000 nM
Nc1c(Cl)cc(C(O)C2CCCCN2)cc1Cl (single isomer, unassigned) [Compound 10, Threo-(3,5-dichloro-4-amino-phenyl)-piperidin-2-yl-methanol]	had effects	had effects	poor, beta2 agonists	
Nc1c(Cl)cc(C(O)C2CCCCN2)cc1Cl (single isomer, unassigned) [Compound 11, Threo-(3,5-Dichloro-4-amino-phenyl)-piperidin-2-yl-methanol]	had effects	had effects	poor, beta2 agonists	
Nc1c(Cl)cc(C(O)C2CCCCN2)cc1Cl (single isomer, unassigned) [Compound 8, (Erythro)-(3,5-dichloro-4-amino-phenyl)-piperidin-2-yl-methanol]	had effects	had effects	poor, beta2 agonists	
